The test system of data set [1] is rat aortic rings. The experiment in a line: Rat aortic ring assay.
Description: The aortic rings were prepared using a Furchgott procedure (described in Furchgott, R.F., "Role of Endothelium in Response of Vascular Smooth Muscle", Circ. Res. 53: 557-573, 1983) with changes in tension recorded. In all preparations, initial tension (1.5 grams) was produced with 30 mM KCl.
For data set [2], the system named is colonic myeloperoxidase activity. The experiment in a line: Mouse acetic acid-induced colitis model (colonic myeloperoxidase). Format: in vivo. The settings on record: 30 mg/kg dose, intracolonic, 30 minutes before acetic acid, tissue after 24 hours. As for the experimental part: Mouse colitis model. […] Mice were lightly anesthetized. A solution of 3% (v/v) aqueous acetic acid was instilled intracolonically via a flexible polyethylene tube. After 24 hours, the animals were killed and colonic tissue samples were obtained. Tissue samples were assessed biochemically for the neutrophil marker enzyme, myeloperoxidase (MPO). The colonic tissue samples were minced, homogenized in detergent, and sonicated. After centrifugation, enzyme activities were assayed spectrophotometrically by determining the decomposition of peroxide using o-dianisidine as the hydrogen donor. Data was obtained as the absorbance (460 nm) at 20 minutes. Test agents were given intracolonically at a dose of 30 mg/kg body weight 30 minutes before acetic acid instillation as a sonicated suspension in 0.5% aqueous methyl cellulose. Vehicle was given to appropriate acetic acid control animals. Normal tissue was obtained from control animals which received only vehicle. Colonic myeloperoxidase activities were determined as units/g wet weight of tissue. Reduction of colonic myeloperoxidase activity by test agents in acetic acid-treated mice is expressed as % inhibition (Table 2). Colonic myeloperoxidase activity correlated with the degree of tissue inflammation as assessed by visual and histological analysis.

Data set [3] addresses T1, nitric oxide synthase (NOS) (Mus musculus, UniProt P29477).
T1 construct: crude NOS (prepared from endotoxin-treated RAW 264.7 cells); endogenous in cells; host or cells: endotoxin-treated RAW 264.7 cells (crude enzyme preparation)
T1 sequence (P29477 1-1144): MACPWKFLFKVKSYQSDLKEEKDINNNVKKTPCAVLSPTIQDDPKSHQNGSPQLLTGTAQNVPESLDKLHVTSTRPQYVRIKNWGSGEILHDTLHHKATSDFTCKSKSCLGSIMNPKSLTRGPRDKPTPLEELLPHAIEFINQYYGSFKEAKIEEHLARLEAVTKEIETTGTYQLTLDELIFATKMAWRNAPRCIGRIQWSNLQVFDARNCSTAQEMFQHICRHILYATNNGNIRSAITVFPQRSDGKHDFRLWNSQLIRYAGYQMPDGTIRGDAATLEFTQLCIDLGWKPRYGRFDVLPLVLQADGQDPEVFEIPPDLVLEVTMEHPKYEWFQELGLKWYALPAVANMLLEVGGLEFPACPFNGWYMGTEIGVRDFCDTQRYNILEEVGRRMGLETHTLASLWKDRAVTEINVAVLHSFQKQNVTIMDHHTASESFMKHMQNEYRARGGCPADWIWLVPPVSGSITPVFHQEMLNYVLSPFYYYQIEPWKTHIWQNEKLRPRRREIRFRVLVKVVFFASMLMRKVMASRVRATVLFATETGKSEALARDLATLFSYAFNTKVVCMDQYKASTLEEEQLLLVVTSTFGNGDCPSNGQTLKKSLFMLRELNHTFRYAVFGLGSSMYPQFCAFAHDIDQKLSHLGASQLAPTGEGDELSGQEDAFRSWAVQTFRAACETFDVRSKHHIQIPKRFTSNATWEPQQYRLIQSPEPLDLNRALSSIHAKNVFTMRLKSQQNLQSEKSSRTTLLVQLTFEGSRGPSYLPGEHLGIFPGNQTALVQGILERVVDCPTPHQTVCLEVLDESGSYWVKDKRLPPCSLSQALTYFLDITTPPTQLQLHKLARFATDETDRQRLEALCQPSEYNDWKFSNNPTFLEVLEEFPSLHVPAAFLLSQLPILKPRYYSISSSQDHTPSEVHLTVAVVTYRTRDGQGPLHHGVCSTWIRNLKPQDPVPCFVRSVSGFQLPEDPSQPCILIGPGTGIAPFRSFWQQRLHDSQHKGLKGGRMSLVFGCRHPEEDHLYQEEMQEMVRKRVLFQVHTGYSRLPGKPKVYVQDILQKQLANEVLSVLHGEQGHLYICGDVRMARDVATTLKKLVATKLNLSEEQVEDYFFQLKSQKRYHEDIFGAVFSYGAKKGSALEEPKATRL
The data set is described as follows: NOS activity measured by citrulline production. It is filed as biochemical.

Data set [4] concerns human aortic endothelial cells (HAE cells).
Excerpt: (§1) Human peripheral blood neutrophils were isolated from fresh venous blood of healthy volunteers. EDTA anticoagulated blood was separated using a single step density centrifugation (Polymorphprep; Nycomed Pharma, Oslo, Norway) followed by several washes in Hank's balanced salt solution supplemented with 0.5% BSA (Bovine Serum Albumin) (HBSSB) and the hypertonic lysis of erythrocytes. Neutrophils were counted via Coulter electronic particle counter and resuspended in HBSSB supplemented with 25% Endothelial Basal Medium (EBM), (Clonetics Corporation, San Diego, CA) at a concentration of 5 x 10^6 polymorphonuclear leukocytes (PMN)/ml.
(§2) The cytotoxic effects of stimulated neutrophils on endothelial cells were determined using a ^51Cr-release assay as previously described (Moldow, C.F., and Jacob, H.S. (1984) Methods Enzymol. 105, 378-385). Confluent monolayers of human aortic endothelial cells (HAE cells; Clonetics) grown in 96-well culture plates were prelabeled with 1 µCi/well ^51Cr (Na2 ^51Cr2O4, New England Nuclear, Boston, MA). The cells were incubated for 18 h at 37°C, then cytokine-activated with 10 Units/well human recombinant tumor necrosis factor-a (hrTNF-α; Monsanto Company, St. Louis, MO) for 4 h at 37°C. The cells were washed twice to remove unincorporated radioactivity with Hank's balanced salt solution supplemented with 0.5% BSA. To assess inhibition of PMN-mediated cytotoxicity, manganese(II) complexes at various doses (0-300 µM) were added to five replicate wells/dose of HAE cells immediately prior to the addition of PMN. Suspensions of PMN in HBSSB supplemented with 25% Endothelial Basal Medium were added to the wells at a neutrophil to endothelial cell ratio of 50:1. The PMN were allowed to adhere for 15 minutes at 37°C, primed with 125 Units/well hrTNF-α (Berkow, R.L., Wang, D., Larrick, J.W., Dodson, R.W., and Howard, T.H. (1987) J. Immunol. 139, 3783-3791; Varani, J.; Bendelow, M. J. Sealey, D. E.; Kunkel, S. L.; Gannon, D. E.; Ryan, U.S.; and Ward, P.A. (1987) Lab. Invest., 59, 292-295) for 10 minutes, and stimulated with human recombinant complement component C5a (Sigma Chemical, St. Louis, MO). […] After an additional incubation of 4 hours at 37°C, 200 µl of the 250 µl reaction volume (soluble fraction) was removed to a tube for counting. The cells were washed twice with 200 µl HBSSB (nonadherent fraction) and the washes pooled with the soluble fraction. The adherent fraction was collected by lysing the HAE cells with 200 µl 1N NaOH for 30 minutes and removing to separate tubes. Both fractions were analyzed by gamma scintillation spectrometry. The percentage cytotoxicity was calculated by the following formula: % Cytotoxicity =(cpm (soluble + nonadherent fractions))/(cpm (soluble + nonadherent + adherent fractions))x 100 [formula] Specific cytotoxicity reflects the difference between ^51Cr-release induced by stimulated PMN and unstimulated PMN. The IC50 values for the manganese(II) complexes for protection against neutrophil-mediated cytotoxicity were determined from a computer-driven logistic regression equation from a plot of % specific cytotoxicity versus the concentration of the manganese(II) complex.
For data set [5], the system named is rat lung fibroblast cells. The data set is described as follows: Nitric oxide: rat lung fibroblast cGMP reporter assay. The conditions noted are these: for cGMP: mean. Format: cell-based. As for the experimental part: The assay is described in Ishii, I., Sheng, H., Warner, T.D., Förstermann, V. and Murad, F., Am. J. Physiol., 261 (Heart Circ. Physiol. 30); H598-H603, 1991 modified in that the nitric oxide synthase (NOS) is added directly to the cells. Rat lung fibroblast cells were grown to confluence on a 48-well tissue culture plate containing Earle's salts medium. The medium is removed and the cells washed twice with minimal essential medium buffered with Earle's salts. A nitric oxide (NO) generating system consisting of enzyme (NOS), nicotinamide adenine dinucleotide phosphate (NADPH), arginine and required cofactors, such as tetrahydrobiopterin and flavin adenine dinucleotide (FAD) is subsequently added to each well. In cases where the complex of Example 1 was added, addition occurred with the NO generating system. After five minutes of incubation, each reaction is terminated, cellular cGMP extracted and measured by radioimmunoassay.
The capacity of the rat lung fibroblast cells to respond to NO was confirmed by adding sodium nitroprusside (SNP), a compound which spontaneously degrades to NO and results in increased cGMP levels. Next, crude NOS (prepared from endotoxin-treated RAW 264.7 cells) was added to the rat lung fibroblast cells to determine their response to enzymatically generated NO. A dose-dependent increase in cGMP with increasing amounts of enzyme was obtained. Superoxide dismutase (SOD) addition augmented cellular cGMP levels.
On the technique in general: A reporter such as luciferase makes a cellular process visible.

Data set [6] deals with conscious rats. The data set is described as follows: Rat hemodynamic model (mean blood pressure, conscious rats). Format: in vivo, male Sprague-Dawley rats. As for the experimental part: Catheters were inserted into the femoral vein, femoral artery and bladder of male Sprague-Dawley rats (250-325 grams total body weight) anesthetized with ether. The rats were then placed in individual restraining cages and allowed to regain consciousness. Blood pressure was measured by a standard pressure transducer and physiograph. Increasing doses of the manganese(II) complex of Example 1 (prepared in an aqueous solution) were given as single bolus injections. The results of the tests can be found in Figure 1. The blood pressure values represent the mean arterial blood pressure from the mean values of 3 rats. […] Thus, the potentiation by the complex of Example 1 of the vasorelaxant effects of NO is consistent with the proposed mechanism of action as an SOD mimic.

In data set [7] the test system is human aortic endothelial cells (HAE cells). The data set is described as follows: Neutrophil-mediated cytotoxicity assay (51Cr-release). The settings on record: 50% inhibition of specific cytotoxicity; human neutrophil-mediated killing of human aortic endothelial cells.
Excerpt: as §1, §2

`C1CNCCNCCNCCNCCN1.[Cl-].[Cl-].[Mn+2]` [Example 1, [Manganese(II)dichloro(1,4,7,10,13-Pentaazacyclopentadecane)]]: in data set [1] (complex 0.5 and 5.0 micromolar, acetylcholine 0.1 and 1.0 micromolar), the “effect on the relaxation response to acetylcholine, in words” value is “additive effect”. Besides, the “effect on the relaxation response to sodium nitroprusside, in words” value in data set [1] (complex 0.5 and 5.0 micromolar, sodium nitroprusside 0.001 to 10 micromolar) is reported as “additive effect”. Further, the maximum relaxation in data set [1] (endothelium and dose-dependent from 0.05 to 300 micromolar, 30 mM KCl) was 45%. Also, the “augmentation of cellular cGMP levels” value in data set [1] (rat aortic rings, 5 micromolar for 1 min.) was determined as 2.5 fold. For the same compound, the “% Inhibition of Colonic Myeloperoxidase Activity” value in data set [2] stood at 69%. The “NOS activity as measured by citrulline production” value in data set [3] is reported as “does not increase NOS activity”. The “protection against human neutrophil-mediated cytotoxicity, in words” value in data set [4] was “protective against human neutrophil-mediated cytotoxicity”. The cGMP came out at 19.3 fmol/well/10 in data set [5] (NOS + complex 0.0001mM); 21.7 fmol/well/10 in data set [5] (NOS + complex 0.001mM); 43.7 fmol/well/10 in data set [5] (NOS + complex 0.01mM); 54.7 fmol/well/10 in data set [5] (NOS + complex 0.10mM); 60.3 fmol/well/10 in data set [5] (NOS + complex 1.0mM); 11.7 fmol/well/10 in data set [5] (complex alone, 1mM, no NOS). Also, in data set [5] (complex alone, 1 millimolar), the “basal levels of cGMP, in words” value is “not increased”. In data set [5] (with NO generating system, 1 micromolar to 1 millimolar), the “cGMP levels, in words” value is “dose-dependent increase in cGMP levels”. For the same compound, the “effect on mean blood pressure, in words” value in data set [6] (increasing doses as single bolus injections, aqueous solution, data in Figure 1) was “blood pressure drop”. In addition, the “duration of the blood pressure drop” value in data set [6] (single bolus injections) is 3 to 5 min. Also, half-maximal inhibition in data set [7] (IC50) required 25 µM.

These data come from patent publication EP0598753B1, “MANGANESE COMPLEXES OF NITROGEN-CONTAINING MACROCYCLIC LIGANDS EFFECTIVE AS CATALYSTS FOR DISMUTATING SUPEROXIDE” (MONSANTO COMPANY, priority 1991, dated 1993).
